Here are results for 32 molecules from patent EP0076669A1, “Novel 3-phenyl-1-indanamines, pharmaceutical compositions and methods of preparation” (KEFALAS A/S, priority 1981, dated 1983).

Assay [1] deals with tetrabenazine induced ptosis. Nature of the assay: Tetrabenazine ptosis antagonism. The assay is classed as in vivo. The settings on record: Mus musculus, ip, 0.5 h; i.p., mice; tetrabenazine 40 mg/kg i.p. 30 min after test substance. Here is the method: For insoluble substances the doses 0, 1/8, 1/32 and 1/128 of "i.^p. LD50" are used. 3 mice are used for each dose level. Thirty minutes after administration of test substance, tetrabenazine, 40 mg/kg, is injected i.p. Ptosis is evaluated 30 minutes after administration of tetrabenazine, the following rating scale being used: 0 = normal eyes, 1=1/4 closed eyes, 2 = 1/2 closed eyes, 3 = 3/4 closed eyes and 4 = completely closed eyes. Ptosis is evaluated 30 seconds after tilting the cage 3 times. The tilting is carried out in such a way that the animals slide along the floor of the cage.
The results are recorded as % inhibition of ptotic score calculated on the basis of the score of the control group. If ptotic score for the control group is < 10 the test is rejected and another is performed. The registration can also be done as an on line procedure.

Assay [2] deals with T1, ^3H-DA uptake in striatal synaptosomes (Rattus norvegicus, UniProt P23977).
T1 construct: the two corpura striata are dissected out and gently homogenized; from tissue; host or cells: rat corpus striatum, synaptosomal P2 fraction
Nature of the assay: biochemical. The assay is classed as biochemical, Rats. Here is the method:
^3H-DA uptake in striatal synaptosomes in vitro.
(§1) 0.32 M sucrose containing 1 mM Nialamide
Krebs-Ringer-phosphate buffer, pH 7.4
3,4-dihydroxyphenylethylamine [ethyl-1-^3H(N)] = ^3H-DA, spc. act. app. 15 Ci/mmol, New England Nuclear
(§2) Thomas Tissue Grinder, clearance 0.004-0.006 inch.
Rats are killed by a blow to their head, exsanguinated and their brains removed. The brain is placed on a precooled glassplate, and the two corpura striata are dissected out and gently homogenized in 40 volumes of ice cold 0.32 M sucrose containing 1 mM of nialamide using a hand homogenizer with teflon pestle. The P2-fraction (synaptosomal fraction) is obtained by centrifugation (600 g, 10 min., 25000 g, 55 min. 4 °C) and suspended in 40 volumes of a modified Krebs-Ringer-phosphate buffer, pH 7.4. To 200µl of the synaptosomal fraction on ice are added 3700 µl modified Krebs-Ringer-phosphate buffer - containing test compounds. After a preincubation at 37°C for 5 min. […] The incubation is terminated by filtering the samples under vacuum through Millipore filters with a wash of 5 ml buffer containing 10 µM of unlabelled DA. After solubilizing the filters in 1 ml of cellosolve the radioactivity is determined by liquid scintillation counting after the addition of 10 ml of Insta-Gel. The unspecific binding of ^3H-DA is determined by incubating control samples on ice instead of at 37 °C.
All experiments are performed in ttriplicate.
The mean of all control samples and ice samples are calculated.

Assay [3] concerns the target T2, ^3H-5-HT uptake in synaptosomes (Rattus norvegicus, UniProt P31652).
T2 construct: Rest of the brain is gently homogenized (glass teflon homogenizer); from tissue; host or cells: rat brain without cerebellum, pons and medulla oblongata, synaptosomal P2 fraction
Nature of the assay: Inhibition of 3H-5-HT uptake in synaptosomes in vitro. In kind it is biochemical, Rats. Particulars: rat brain synaptosomes, 3H-5-HT 10 nM; read-out: Uptake Inhibition IC50 5-HT. How it is done:
Inhibition of ^3H-5-HT uptake in synaptosomes in vitro.
as §1
Krebs-Ringer-Phosphate buffer, pH 7.4
Millipore filters (HAWPO 2500, 0.45 µ)
5-hydroxy [G-^3H] tryptamine creatinine sulphate = ^3H-5-HT, spc. act. app. 10 Ci/mmol, The Radiochemical Centre, Amersham.
as §2
Rats are killed by a blow on the head and exsanguinated. The brain is quickly removed, rinsed for blood and placed on a cold plate. The cerebellum, pons and medulla oblongata are removed. Rest of the brain is gently homogenized (glass teflon homogenizer) in 40 volumes of ice cold 0.32 M of sucrose containing 1 mM of nialamide. The P2 fraction (synaptosomal fraction) is obtained by centrifugation (600 g, 10 min. and 25000 g, 55 min., 4°C) and suspended in 40 volumes of a modified Krebs-Ringer-Phosphate buffer, pH 7.4.
To 200µl of the synaptosomal suspension on ice are added 3700 µl modified Krebs-Ringer-phosphate buffer, pH 7.4, containing test substances. After preincubation at 37°C for 5 min., 100 µl of ^3H-5-HT (final concentration in the samples = 10 nM) are added and the samples are incubated for 10 min. at 37 °C. The incubation is terminated by filtering the samples under vacuum through Millipore filters with a wash of 5 ml buffer containing 10 µM of unlabelled 5-HT. After solubilizing the filters in I ml of cellosolve, 10 ml of Instagel are added, and the radioactivity is determined by liquid and scintillation counting. The unspecific binding and passive transport of ^3H-5-HT is determined by incubating control samples on ice instead of at 37°C. All experiments are performed in triplicate. The mean of all control samples are calculated.
The IC50- values are determined as the concentrations, at which the uptake are 50 per cent of the uptake in control sample -uptake in ice samples.

In another assay the test system is potentiation of 5-HTP. Nature of the assay: 5-HTP potentiation (5-HTP syndrome). The assay is classed as in vivo. The settings on record: Mus musculus, ip, 0.5 h; i.p., mice; 5-HTP 100 mg/kg i.v. 30 min after test substance; read-out: 5-HTP potentation,ED50. How it is done: The test substance is given i.p. or p.o. in the doses 10, 10, 2.5, 0.63 and 0 mg/kg. Three mice are used for each dose level. One of the groups on the highest dose is used as control of the compounds own effect. […] Thirty minutes after administration of test substance, 5-HTP, 100 mg/kg i.v. is given (injection time 5-10 sec.). After this 5-HTP dose the animals remain unaffected. If the animals have been pretreated with a substance, which inhibits the re-uptake of 5-HT, a 5-HTP syndrome will occur. This is characterized by the following symptoms: 1) excitation, 2) tremor, and 3) abduction of the hind limbs.
After the administration of 5-HTP the animals are observed for 15 minutes and each animal is given one point for each symptom present. Thus, the maximal score for a group consisting of 3 mice is 9.
The results are stated as fractions: 0/9, 1/9, 2/9 ..... 8/9, 9/9, where 0, 1, 2 ..... 8, 9 are the number of points per group after the dose in question.

The mark [4] stands for this setting: rat striatal synaptosomes, 3H-DA 12.5 nM, read-out: Uptake Inhibition IC50 DA.

As a reminder, the ED50 is the dose at which the effect has come halfway, by size or by number of responders. Usually IC50 stands for the concentration that inhibits the measured activity by half.

SMILES strings stand for the structures. Where a name gives a salt, the structure may show the parent alone. Read-outs that look alike come from different tables or passages of the source.

T1 sequence (P23977 whole entry): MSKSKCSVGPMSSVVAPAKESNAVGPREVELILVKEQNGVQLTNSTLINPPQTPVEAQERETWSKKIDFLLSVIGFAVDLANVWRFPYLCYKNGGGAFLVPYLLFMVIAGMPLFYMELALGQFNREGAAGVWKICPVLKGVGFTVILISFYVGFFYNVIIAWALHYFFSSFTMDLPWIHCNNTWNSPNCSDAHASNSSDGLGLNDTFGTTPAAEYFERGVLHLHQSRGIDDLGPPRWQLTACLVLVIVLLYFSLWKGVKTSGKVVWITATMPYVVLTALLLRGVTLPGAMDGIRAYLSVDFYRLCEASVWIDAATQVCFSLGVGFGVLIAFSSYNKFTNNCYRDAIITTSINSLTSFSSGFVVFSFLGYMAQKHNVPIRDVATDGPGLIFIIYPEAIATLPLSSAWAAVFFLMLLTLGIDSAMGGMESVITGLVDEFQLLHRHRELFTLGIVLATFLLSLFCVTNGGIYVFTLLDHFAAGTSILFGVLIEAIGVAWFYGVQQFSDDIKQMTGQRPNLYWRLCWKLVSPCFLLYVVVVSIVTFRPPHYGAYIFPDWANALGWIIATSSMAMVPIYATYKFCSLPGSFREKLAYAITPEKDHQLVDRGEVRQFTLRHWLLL
T2 sequence (P31652 whole entry): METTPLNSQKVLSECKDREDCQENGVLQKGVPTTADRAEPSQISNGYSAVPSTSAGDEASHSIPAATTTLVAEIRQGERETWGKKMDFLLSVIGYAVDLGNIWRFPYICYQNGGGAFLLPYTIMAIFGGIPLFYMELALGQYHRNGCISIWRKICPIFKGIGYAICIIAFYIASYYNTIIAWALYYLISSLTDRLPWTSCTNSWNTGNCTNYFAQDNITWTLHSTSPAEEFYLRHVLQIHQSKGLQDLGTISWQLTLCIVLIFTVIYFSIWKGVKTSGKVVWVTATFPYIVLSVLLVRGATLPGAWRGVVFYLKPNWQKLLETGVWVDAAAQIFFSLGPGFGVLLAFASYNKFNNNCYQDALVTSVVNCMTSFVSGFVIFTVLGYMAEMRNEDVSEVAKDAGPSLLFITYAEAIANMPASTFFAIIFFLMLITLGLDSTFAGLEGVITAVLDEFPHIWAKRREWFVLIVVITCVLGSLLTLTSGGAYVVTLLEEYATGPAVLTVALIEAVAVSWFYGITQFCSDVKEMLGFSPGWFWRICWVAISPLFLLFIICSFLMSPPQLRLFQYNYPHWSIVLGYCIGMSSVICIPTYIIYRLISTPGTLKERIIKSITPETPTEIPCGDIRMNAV

Take `Cc1ccc2c(c1)[C@H](N(C)C)C[C@H]2c1ccc(F)cc1` (relative stereo) [Lu 18-125-c]: the ED50 was 41 µmol/kg in assay [1] and 44 µmol/kg in the assay with potentiation of 5-HTP. The half-inhibitory concentration (IC50) was 100 nM in assay [2] (setting [4]) and 9.8 nM in assay [3].
Regarding `CCN(CC)[C@@H]1C[C@@H](c2ccc(F)cc2)c2ccc(F)cc21` (relative stereo) [Lu 18-149-c], in assay [1], the median effective dose (ED50) is 52 µmol/kg. The results for the 50% inhibitory concentration (IC50) in assay [2] (setting [4]) and in assay [3] were 68 nM and 140 nM, respectively.
`CCN(CC)[C@@H]1C[C@@H](c2ccc(F)cc2)c2ccc(C)cc21` (relative stereo) [Lu 18-200-c] showed an ED50 in assay [1] of 63 µmol/kg. Also, the half-maximal inhibitory concentration (IC50) in assay [2] (setting [4]) was 210 nM.
On to `CN[C@@H]1C[C@H](c2ccc(Cl)cc2)c2ccccc21` (relative stereo) [Lu 19-120-c], for which the values for the ED50 (in assay [1]; with potentiation of 5-HTP) were above 34 µmol/kg and 23 µmol/kg, respectively.
For `CN(C)[C@@H]1C[C@@H](c2ccc(Cl)cc2)c2ccccc21` (relative stereo) [Lu 19-121], in that order: 66 µmol/kg and 18 µmol/kg.
The matching figures for `CN(C)[C@@H]1C[C@H](c2ccc(Cl)cc2)c2ccccc21` (relative stereo) [Lu 19-124]: 43 µmol/kg and 109 µmol/kg.
The matching figures for `CN[C@@H]1C[C@@H](c2ccc(Cl)c(Cl)c2)c2ccc(F)cc21` (relative stereo) [Lu 19-136-c]: 33 µmol/kg and 27 µmol/kg.
Regarding `CN[C@@H]1C[C@H](c2ccc(Cl)c(Cl)c2)c2ccc(F)cc21` (relative stereo) [Lu 19-137-c], the ED50 worked out at 15 µmol/kg in assay [1] and 34 µmol/kg in the assay on potentiation of 5-HTP.
For `CN(C)[C@@H]1C[C@@H](c2ccc(Cl)c(Cl)c2)c2ccc(F)cc21` (relative stereo) [Lu 19-143-c], in that order: above 111 µmol/kg and 14 µmol/kg.
For `CN(C)[C@@H]1C[C@H](c2ccc(Cl)c(Cl)c2)c2ccc(F)cc21` (relative stereo) [Lu 19-144-c], in that order: above 111 µmol/kg and 29 µmol/kg.
For `CN[C@@H]1C[C@@H](c2ccc(Cl)c(Cl)c2)c2ccc(OC)cc21` (relative stereo) [Lu 20-015-o], in that order: 7 µmol/kg and 14 µmol/kg.
Turning to `CN[C@@H]1C[C@H](c2ccc(Cl)c(Cl)c2)c2ccc(OC)cc21` (relative stereo) [Lu 20-016-o], the median effective dose (ED50) was 14 µmol/kg in assay [1] and 3 µmol/kg in the assay on potentiation of 5-HTP.
Consider `CN[C@@H]1C[C@H](c2ccc(Cl)c(Cl)c2)c2ccc(O)cc21` (relative stereo) [Lu 20-030], for which the ED50 in assay [1] stood at 15 µmol/kg; with potentiation of 5-HTP, 59 µmol/kg.
The matching figures for `CN(C)[C@@H]1C[C@@H](c2ccc(Cl)c(Cl)c2)c2ccc(O)cc21` (relative stereo) [Lu 20-031-b, trans N,N-dimethyl-3-(3,4-dichlorophenyl)-6-hydroxy-1-indanamine, hydrobromide]: 97 µmol/kg and 18 µmol/kg.
For `COc1ccc2c(c1)[C@H](N(C)C)C[C@H]2c1ccc(Cl)c(Cl)c1` (relative stereo) [Lu 20-049-o], in that order: 5.9 µmol/kg and 37 µmol/kg.
Consider `CN(C)CCC=C1c2ccccc2CCc2ccccc21` [Amitrip-tyline, amitriptyline, reference compound], for which the median effective dose (ED50) in assay [1] turned out to be 7 µmol/kg. Further, the IC50 in assay [2] was determined as 5400 nM.
Take `CN(C)CCCC1(c2ccc(F)cc2)OCc2cc(C#N)ccc21` (stereo not drawn) [Citalo-pram, reference compound]: the ED50 in assay [1] stood at 20 µmol/kg; with potentiation of 5-HTP it was 3.3 µmol/kg.
On to `CNC1CC(c2ccc(F)cc2)c2ccc(F)cc21` (stereo not drawn) [Lu 13-164-o], for which the figures for the ED50 (in assay [1]; with potentiation of 5-HTP) were 22 µmol/kg and 57 µmol/kg, respectively.
In the case of `CCN(CC)C1CC(c2ccc(F)cc2)c2ccc(F)cc21` (stereo not drawn) [Lu 18-148-c], in assay [1], the ED50 was above 118 µmol/kg. For the same molecule, the IC50 in assay [2] (setting [4]) worked out at 1600 nM; in assay [3], 440 nM.
For `CCN(CC)C1CC(c2ccc(Cl)c(Cl)c2)c2ccccc21` (stereo not drawn) [Lu 18-188-c], the ED50 in assay [1] was above 108 µmol/kg. The IC50 in assay [2] (read-out: Uptake Inhibition IC50 DA) amounted to 120 nM; in assay [3], 13 nM.
Consider `CN(C)C1CC(c2ccc(F)cc2)c2ccccc21` (stereo not drawn) [Lu 19-008-c], for which the results for the ED50 (in assay [1]; in the assay on potentiation of 5-HTP) were above 137 µmol/kg and 25 µmol/kg, respectively. In addition, in assay [2] (setting [4]), the IC50 was determined as 250 nM.
The matching figures for `CN(C)C1CC(c2ccc(N)cc2)c2ccc(F)cc21` (stereo not drawn) [Lu 19-022-c]: 19 µmol/kg, 14 µmol/kg and 170 nM.
In the case of `CCNC1CC(c2ccc(Cl)c(Cl)c2)c2ccccc21` (stereo not drawn) [Lu 19-041-c], the figures for the ED50 (in assay [1]; in the assay on potentiation of 5-HTP) were above 117 µmol/kg and 24 µmol/kg, respectively. The IC50 in assay [2] (setting [4]) worked out at 62 nM.
Consider `Clc1ccc(C2CC(NCc3ccccc3)c3ccccc32)cc1Cl` (stereo not drawn) [Lu 19-072-c], for which the 50% effective dose (ED50) (in assay [1]; with potentiation of 5-HTP) was above 99 µmol/kg in each case.
With `OCCNC1CC(c2ccc(Cl)c(Cl)c2)c2ccccc21` (stereo not drawn) [Lu 19-073-c], the ED50 (in assay [1]; in the assay on potentiation of 5-HTP) was above 111 µmol/kg throughout.
As to `Clc1ccc(C2CC(NCCc3ccccc3)c3ccccc32)cc1Cl` (stereo not drawn) [Lu 19-079-o], the 50% effective dose (ED50) (in assay [1]; in the assay with potentiation of 5-HTP) was above 85 µmol/kg in each case.
For the molecule `CNC1CC(c2ccc(F)c(Cl)c2)c2ccccc21` (stereo not drawn) [Lu 19-086-c], the results for the ED50 (in assay [1]; in the assay with potentiation of 5-HTP) were 32 µmol/kg and 30 µmol/kg, respectively.
For `CNC1CC(c2ccc(F)cc2)c2ccc(C)cc21` (stereo not drawn) [Lu 19-091-c], in that order: above 137 µmol/kg and 55 µmol/kg.
Consider `CN(C)C1CC(c2ccc(F)c(F)c2)c2ccccc21` (stereo not drawn) [Lu 19-096-c], for which the ED50 is 13 µmol/kg in assay [1] and 42 µmol/kg in the assay with potentiation of 5-HTP.
The matching figures for `CN(C)C1CC(O)(c2ccc(F)c(Cl)c2)c2ccccc21` (stereo not drawn) [Lu 19-114, N,N-dimethyl-3-(3-chloro-4-fluorophenyl)-3-hydroxy-1-indanamine]: 14 µmol/kg and 26 µmol/kg.
For `COc1ccc2c(c1)C(N(C)C)CC2c1ccc(Cl)c(Cl)c1` (stereo not drawn) [Lu 20-050], the ED50 in assay [1] stood at 119 µmol/kg; with potentiation of 5-HTP, 26 µmol/kg.
The matching figures for `CN1Cc2c(N)cccc2C(c2ccccc2)C1` (stereo not drawn) [Nomi-phensine, nomiphensine, reference compound]: 4.3 µmol/kg and above 56 µmol/kg.
